Reference: patent US20260048046A1, “METHOD FOR IMPROVING GROWTH PERFORMANCE IN FEEDLOT CATTLE” (Elanco US Inc., priority 2022, published 2026)
“Also recorded” adds a separate entry of the source.

What was measured:
[1] = system: beef cattle; test: 91-d study: Warner-Bratzler shear force of striploin steaks; type: in vivo; settings: 91-d treatment, LS mean, shear force after 14-d aging
Experimental: Following chill, striploins (LM) were collected from three randomly selected cattle/CPE and shipped to the University of Illinois Meat Science Laboratory for Warner-Bratzler shear force (WBSF) determination. At the laboratory, the anterior end of the striploin was fabricated into 2.54-cm steaks, vacuum packaged, and aged at 4° C. until 14-d postmortem. Steaks were frozen after aging, and then thawed at 4° C. for 24 h before being cooked on a Farberware Open Hearth electric broiler (Farberware, Bronx, NY). Copper-constantan Type-T thermocouples (Omega Engineering. Stamford, CT) connected to a digital scanning thermometer (Barnant Co., Barington, IL) were used to monitor internal temperature, and each steak was flipped a single time when the internal temperature reached 35° C. The steaks were removed from the grill when a temperature of 70° C. was achieved and cooled to ˜25° C. before six cores (1.25 cm diameter) were removed parallel to muscle fiber orientation. Cores were sheared perpendicular to the muscle fibers using a Texture Analyzer TA.HD Plus (Stable Microsystems, Godalming. UK) equipped with a WBSF attachment, and the peak WBSF measurement was averaged over all 6 cores to obtain a single shear force measurement (kg of force) for each steak.

[2] = system: beef cattle; test: 91-d study: carcass characteristics; type: in vivo; settings: for Adjusted fat thickness / Calculated yield grade / HGW / IM area / KPH / Dressing percentage / Lean maturity / Overall maturity / Skeletal maturity / Marbling score: 91-d treatment, LS mean; for Dressing percentage: unshrunk BW basis; for Lean maturity / Overall maturity / Skeletal maturity: 100 A, 200 B maturity; for Marbling score: 500 Small, 600 Modest
Source text: A randomized complete block design was used to evaluate the effect of lubabegron (LUB) on performance over a 91-d period using 336 beef cattle (BW=453±34.5 kg) housed in cattle pen enclosures (CPE). Four LUB treatments were included in the study based on dose: 0.0 (control or CON), 1.38, 5.5, and 22.0 (mg·kg^−1 of DM). Because there was a limited number of CPE (n=8), three sequential cycles (blocks) were required to generate 6 replicates of each dose×sex combination. As such, 112 cattle (56 steers and 56 heifers) were housed concurrently within each cycle across the eight CPE (14 cattle/CPE), with each dose×sex combination being represented by a single CPE/cycle. To assure different frame sizes of cattle were represented, cattle in cycles one and three were large-frame Continental crossbreds, whereas cattle in cycle 2 were medium-frame British crossbreds.
On day 91, cattle were loaded onto double-decked aluminum semi-trailers and transported ˜1,000 km to a commercial abattoir where they were slaughtered following an ˜5 to 9 h lairage. Carcass identification was maintained throughout the slaughter process by recording ear tag sequence at stunning and then cross-matching to sequentially numbered carcass tags. Hot carcass weights and KPH were measured following industry standard processing, and yield grade (YG) and quality grade data were collected from left carcass sides by trained university personnel after 22 h in a spray-chill system.
Data were analyzed using version 9.2 of SAS (SAS Institute, Cary, NC), and the individual CPE were considered the experimental unit. Continuous variables were analyzed using PROC MIXED, with treatment (LUB dose), sex, and the dose×sex interaction as fixed effects, and cycle as the random effect included in the model. If the dose×sex interaction was not significant (P>0.05), the main effect of dose pooled across sexes was evaluated. When the main effect of dose was significant (P≤0.05) or tended to be significant (0.05≤P≤0.10), planned contrasts comparing each LUB dose to CON were performed in a pairwise fashion. If the dose×sex was significant (P≤0.05) planned contrasts comparing each LUB dose to CON within sex were performed in a pairwise fashion. Treatment means were estimated using the LSMEANS statement.
Discrete variables were analyzed with a generalized linear mixed model using a binomial distribution and logit link function in PROC GLIMMIX. The classification of fixed and random effects and the handling of interactions and pairwise comparisons were performed in a similar manner as the continuous variables. Statistical analyses for YG were performed on both continuous and discrete (YG 1=1.00 to 1.99, YG 2=2.00 to 2.99, and so on) forms of data, and quality grades were further sorted into the five categories routinely used for determining premium or discount adjustments when cattle are marketed on a grid-based system (U.S. Prime, upper 2/3 Choice, low Choice, Select, and Standard). […] Fisher's exact test was performed using PROC FREQ to evaluate the frequency distribution of the CON cattle compared with LUB. Statistical significance for the main effects of dose was determined by P≤0.05 and tendencies were declared when 0.05≤P≤0.10.

## CC(C)(Cc1ccc(Oc2ncccc2C#N)cc1)NC[C@H](O)COc1ccccc1-c1cccs1 [LUB, 2-{4-[2-({(2S)-2-Hydroxy-3-[2-(2-thienyl)phenoxy]propyl}amino)-2-methylpropyl]phenoxy}nicotinonitrile]
[1]; LUB 1.38 mg·kg^−1 DM
  14-dWBSP: 2.79 kg
[1]; LUB 5.5 mg·kg^−1 DM
  14-dWBSP: 2.92 kg
[1]; LUB 22.0 mg·kg^−1 DM
  14-dWBSP: 2.75 kg
[2]; 91 d, P≥0.262
  Effect of LUB treatment on skeletal, lean, or overall maturity: no effect
[2]; 91 d, YG as discrete variable, CON vs LUB-fed
  Probability of cattle producing a YG3 carcass: greater (P<0.019) for CON-than LUB-fed cattle
[2]; 91 d, across treatments, P≥0.233
  Probability of cattle producing YG1, YG2, or YG4 carcasses: similar
[2]; 91 d, all LUB doses vs CON, P=0.155
  Effect of LUB treatment on calculated YG: no effect
[2]; 91 d, all LUB doses vs CON, P=0.579
  Effect of LUB treatment on adjusted fat thickness: not affected; also recorded: no change
[2]; 91 d, only a single carcass over the entire study
  Dark cutter incidence: not influenced by treatment
[2]; LUB 1.38 mg·kg^−1 DM (first of the respective treatments), 91 d
  Increased HCW: 15 kg animal-1
[2]; LUB 1.38 mg·kg^−1 DM
  Adjusted fat thickness: 1.15 cm
  Calculated yield grade: 2.37
  HGW: 364 kg
  IM area: 94.8 cm^2
  KPH: 1.99%
  Dressing percentage: 62.4%
  Lean maturity: 163
  Overall maturity: 168
  Skeletal maturity: 170
  Marbling score: 573
[2]; LUB 5.5 mg·kg^−1 DM (second of the respective treatments), 91 d
  Increased HCW: 16 kg animal-1
[2]; LUB 5.5 mg·kg^−1 DM
  Adjusted fat thickness: 1.24 cm
  Calculated yield grade: 2.41
  HGW: 365 kg
  KPH: 1.96%
  Dressing percentage: 62.7%
  Lean maturity: 167
  Overall maturity: 169
  Skeletal maturity: 170
  Marbling score: 560
[2]; LUB 22.0 mg·kg^−1 DM (third of the respective treatments), 91 d
  Increased HCW: 16 kg animal-1
[2]; LUB 22.0 mg·kg^−1 DM
  Adjusted fat thickness: 1.19 cm
  Calculated yield grade: 2.25
  HGW: 365 kg
  IM area: 96.8 cm^2
  KPH: 1.61%
  Dressing percentage: 62.8%
  Lean maturity: 163
  Overall maturity: 168
  Skeletal maturity: 172
  Marbling score: 562
[2]; cattle fed LUB (1.38, 5.5, 22.0 mg·kg^−1 DM), 91 d
  Carcass weights heavier than CON: about 15 kg
[2]; cattle fed LUB, 91 d, P=0.004
  Probability of grading high Choice vs CON: lower
[2]; cattle fed LUB, 91 d, P=0.021
  Probability of grading low Choice vs CON: greater
